Holding throughout (format): cell-based, human
The test system of one experiment is VTA-like spheroids. Kind of experiment: FLIPR calcium activity profiling, compound addition (Examples 1-2). Conditions: FLIPR recordings 1-, 30-, 70-min after compound (t1, t30, t70). The protocol:
(§1) To examine neuronal activity changes as a response to compound treatment, calcium activity was assessed using a Fluorescent Imaging Plate Reader (FLIPR) Penta (Molecular Devices). FLIPR Calcium 6 Assay kits were purchased from Molecular Devices (PN: R8190). On day of activity profiling, 96-well or 384-well ULA round bottom (black sides, clear bottom) plates containing spheroids were removed from incubator. Fresh FLIPR Calcium 6 dye was prepared by diluting each vial in 10 ml of freshly prepared, phenol-free complete spheroid maturation media and vortexed for 2 minutes. Half of the media was removed from each well (45 μl from 384-well plate wells, 100 ul from 96-well plate wells) and replaced with equal amounts freshly prepared FLIPR Calcium 6 dye, followed by a 2-hour incubation in the dark in a 37 C, 5% CO2 incubator. After 2-hours, plates were removed and kept at room temperature for 10 minutes, then imaged and calcium activity read using the Molecular Devices FLIPR Penta High-Throughput Cellular Screening System. The FLIPR incubator stage was pre-warmed to 37° C. approximately 30 minutes prior to imaging. Standard filter sets were used for Cal6 imaging (excitation 470-495 and emission 515-575 nm). FLIPR recordings were obtained with the camera in normal mode, and settings included: gain was set to 2.5, exposure time to 0.03 seconds, and excitation intensity to 50%. Fluorescent image reads were taken every 0.6 seconds for a total of 1000 reads over a total run time of 10 minutes. Four recordings total were captured: baseline activity, 1-min after compound treatment, 30- and 70-min after compound treatment.
(§2) After baseline activity, cell plates were removed from the FLIPR and transferred to a 384-well pin tool instrument. Prior to compound addition, the pin tool was subjected to 4 wash cycles exposing the pins to water, methanol, and DMSO each time. Compounds, including either “QC compounds” (compounds with known mechanism of action, listed in results) or the mu opioid receptor selective-agonist DAMGO, were transferred from a compound source plate to the 384-well spheroid plate. Immediately after compound transfer, the cell plate was placed back in the FLIPR for the recording that was 1-min after compound transfer to begin. After this 10-min recording, another recording was captured 30-min after compounds were transferred. After the 30-min recording, the plate was again removed from the FLIPR and transferred to the pin tool instrument. During this phase of compound transfer, naloxone was transferred to wells that received DAMGO during the first compound transfer. Following this second compound transfer, the cell plate was placed back in the FLIPR and a final recording was obtained 30-min later, and 70-min after the initial compound transfer.
(§3) The FLIPR software ScreenWorks PeakPro 2.0 was used for the initial analysis of calcium activity using automated peak detection settings. With these settings, average peak statistics over each 10-min recording for each well were exported from PeakPro to Microsoft Excel. ScreenWorks Peak Pro 2.0 software was used to extract 17 activity features describing different aspects of calcium activity profiles. These included peak amplitude (PkA), peak amplitude standard deviation (PkASD), peak count (PkCt), peak rate (measured as peaks per minute, PpM), peak rate SD, peak spacing (PkSp), peak spacing SD (PkSpSD), peak spacing regularity, area under the curve (AUC), AUC SD, peak rise slope, peak rise slope SD, peak rise time (PkRt), peak ride time SD (PkRtSD), peak decay slope, peak decay slope SD, peak decay time (PkDt), and peak decay time SD (PkDtSD). To assess variability of these peak parameters, percent coefficients of variance (CV) were calculated by dividing the standard deviation/mean and multiplying by 100 for each designer spheroid type, and those with % CV's […] 20% were removed from future analysis. […]

Experiment [1] has as its system PFC-like spheroids. Described as above. Conditions: FLIPR recordings 1-, 30-, 70-min after compound (t1, t30, t70). The protocol: as §1, §2, §3
Another experiment has as its system A53T VTA-like spheroids. Kind of experiment: Parkinson's Disease model, FLIPR calcium activity after compound treatment. Conditions: 90-min after treatment; for reversal of A53T-induced deficits (peak count, peak width): Ropinirole 1, 3 and 10 μM. The protocol:
(§4) Fluorescent Imaging plate Reader (FLIPR): The FLIPR Penta (Molecular Devices) was used to assess calcium fluorescence across the 384-well plate simultaneously and to observe changes after treatment with compounds. The evening before calcium activity was measured, plates were sealed with parafilm and centrifuged at 1485×g for 2-min to get spheroids to the bottom of the well in a centered position. On the day of recording, the plate used for recording was placed in the read plate position inside of the FLIPR following the 2-hour Cal6 incubation at 37° C. Standard filter sets were used for Cal6 imaging with excitation set at 470-495 and emission at 515-575 nm. Fluorescent image reads were taken every 0.6 seconds for all plates, with exposure time of 0.03 and 50% excitation intensity. Recordings from the initial seven plates consisted of 1000 reads and were 10-min recordings with 2.5 gain, while the final two plates consisted of 500 reads (5-min recordings) with a gain of 2. Baseline recordings were taken across all plates and, if applicable, more recordings were obtained 1-, 30-, 60-, and/or 90-min after compound treatment. In between recordings, plates were wrapped in foil and placed back in the incubator at 37° C.
(§5) 384 Pin Tool: A 384 well pin tool (Rexroth) was used to transfer compounds simultaneously to the spheroid plate. Prior to compound transfer, the pin tool went through four wash cycles where pins were rinsed with dimethyl sulfoxide (DMSO), followed by methanol, then deionized (DI) water, to ensure the pins were clean. Compound transfer via the 384 well pin tool occurred after the baseline recordings with the fluorescent imaging plate reader (FLIPR). Here, 60 nL of compound suspended in DMSO was transferred to 60 µL of media in each well, diluting the compounds by 1000-fold and giving a final DMSO concentration of 0.1%. Immediately after compound transfer, the spheroid plate was either placed back inside of the FLIPR for a recording 1-min after compound treatment or placed back in the incubator if post-treatment recording was >30-min after compound transfer.
Calcium Activity Analysis: Calcium oscillatory peak detection data from FLIPR recordings was obtained through ScreenWorks 5.1 (Molecular Devices). Initial peak detection analysis occurred within ScreenWorks 5.1 via the PeakPro 2.0 module. Here, all parameters were set to be the same for all wells per plate. The event polarity was always set to positive and search vector length always set to 11. The baseline, trigger level, which is automatically set to 10% above the baseline, and dynamic threshold, which is the threshold for peak detection were automatically identified by the PeakPro 2.0 module. Wells were manually checked to ensure these parameters were accurately identified prior to analysis. After analysis, data from 18 peak parameters (mean peak amplitude, peak amplitude standard deviation (SD), peak count, mean peak rate, peak rate SD, peak spacing, peaking spacing SD, mean number of EAD-like peaks per well, CTD @ 50% (peak width at 50% amplitude), CTD @ 90% (peak width at 90% amplitude), rise slope, rise slope SD, mean peak rise time, peak rise time SD, decay slope, decay slope SD, mean peak decay time, and peak decay time SD) was exported to a STATALL file that could be converted to a Microsoft Excel spreadsheet. There, percent coefficient of variance (% CV) was calculated within each plate to measure how variable each parameter exported was. […] All data was normalized to the average of DMSO-treated control wells within each plate. […] Bar plots with individual values are reported as mean±SEM.

In experiment [2] the test system is PFC-like spheroids. Kind of experiment: FLIPR calcium activity with Cal6 dye, control compounds / DAMGO / AD compounds (Example 3). The procedure:
Viruses and dyes: To assess calcium activity, the calcium dye, Cal6 (Molecular Devices), and genetically encoded calcium indicator, GCaMP6f (Addgene, cat #100836-AAV9) were used. Cal6 was used according to manufacturer's instructions and 10 mL of maintenance media was added to each vial. Two hours before activity was recorded, half of the spheroid media was exchanged for media with Cal6. The plates were covered in foil and placed in the incubator at 37° C. during the 2-hour (hr) incubation period. Since all viruses used were adeno-associated viruses (AAV), they were added to the media on day 7 to allow for 2-weeks expression prior to recording or testing. All viruses were added to the media at 2e5 multiplicity of infection (MOI). GCaMP6f infection occurred via an adeno-associated virus serotype 9 (AAV9) expressed under the CAG promoter for expression in both neurons and astrocytes. Designer receptors exclusively activated by designer drugs (DREADDs) viruses were used to stimulate and inhibit neuronal activity within spheroids. Both viruses were retrograde AAVs expressed under the human Synapsin promoter for expression in neurons and fused with an mCherry fluorophore. The DREADDs viruses either inserted the designer receptor hM4D(Gi), an inhibitory G-protein coupled receptor, or hM3D(Gq), a stimulatory G-protein coupled receptor. Clozapine-N-oxide (CNO, Tocris cat #4936) was suspended in dimethyl sulfoxide (DMSO) and used as the designer drug to activate the DREADDs viruses. CNO was tested at 1 and 10 μM, with data reported from the 1 μM concentration.
as §4
DAMGO was reconstituted in water at a 1 mM concentration and diluted in media to 20 µM such that spheroids would be treated with a final concentration of 10 μM after the half media exchange. Two aspects of OUD were modeled, chronic treatment along with opioid withdrawal. For spheroids subjected to chronic DAMGO treatment, 20 μM DAMGO in maintenance media was added via half media exchange beginning on day 10, with treatments occurring every other day for 10 days, giving a total of five treatments.
as §5, with “0.1%.” for “0.1%. Immediately after compound transfer, the spheroid plate was either placed back inside of the FLIPR for a recording 1-min after compound treatment or placed back in the incubator if post-treatment recording was >30-min after compound transfer.”

Structures are written as SMILES. Several values for one entry are separate records, joined by “and”; a condition that tells them apart may be missing. Identical values can stand only once. Entries after “also recorded” stand apart in the source; their conditions may differ.

For the compound `Nc1ccncc1` [4-AP, 4-aminopyradine], the “effect on calcium activity peak parameters compared to DMSO controls” value in the experiment with VTA-like spheroids is “did not have any impact on PkCt, PkA, PpM, or PkSp at t1, t30, or t70; also recorded: significantly reduced PkDt at t1; also recorded: trend toward statistical significance for increasing the decay slope”; with PFC-like spheroids [1], “significantly increased PkCt 1-min after exposure; also recorded: For the t30 recording, there was a significant increase in peaks per minute (PpM) and the decay slope; also recorded: Significant increases in PkCt and PpM as well as a reduction in PkSp resulted from 4-AP 70-min after exposure”.
Take `NC(CCCP(=O)(O)O)C(=O)O` (stereo not shown) [AP5]: the “effect on calcium activity peak parameters compared to DMSO controls” value in the experiment on VTA-like spheroids and in the experiment on PFC-like spheroids [1] was “did not impact calcium activity” in each case.
Consider `NC12CC3CC(CC(C3)C1)C2` [Amantadine], for which, in the experiment on A53T VTA-like spheroids, the “reversal of A53T-induced deficits (peak count, peak width)” value (“reversal of A53T-induced deficits” below) is recorded as “only Ropinirole was found to reverse this 90-min after treatment”.
For the compound `CN1[C@@H]2CC[C@H]1C[C@@H](OC(c1ccccc1)c1ccccc1)C2` [Benztropine], the “reversal of A53T-induced deficits” value in the experiment with A53T VTA-like spheroids is given as “only Ropinirole was found to reverse this 90-min after treatment”.
`N#Cc1cc2[nH]c(=O)c(=O)[nH]c2cc1[N+](=O)[O-]` [CNQX]: the “functional response (calcium activity peak parameters) to control compound” value in the experiment on PFC-like spheroids [2] (PFC-like spheroids, recordings 1-, 30-, 60-min after treatment) is “inhibited all activity in PFC-like spheroids for all three recordings (1-, 30-, and 60-min); also recorded: total inhibition that lasted throughout the 1-hr period”. Besides, the “effect on calcium activity peak parameters compared to DMSO controls” value is “total inhibition of calcium activity during the t1 recording and 30-min after CNQX treatment, PkCt and PpM were significantly increased while PkA, PkSp, and PkDt were all still reduced and had no impact on calcium activity in VTA-like spheroids during the t70 recording” with VTA-like spheroids; “total inhibition of calcium activity that lasted throughout the entire recording period” with PFC-like spheroids [1].
Turning to `N[C@@H](Cc1ccc(O)c(O)c1)C(=O)O` [L-Dopa], the “reversal of A53T-induced deficits” value in the experiment with A53T VTA-like spheroids is on record as “only Ropinirole was found to reverse this 90-min after treatment”.
Still for that read-out and setting: the same measure for `C#CCN[C@@H]1CCc2ccccc21` [Rasagiline]: “only Ropinirole was found to reverse this 90-min after treatment”.
Regarding `CCN(C)C(=O)Oc1cccc([C@H](C)N(C)C)c1` [Rivastigmine], the “effect on peak count and spacing in Wt PFC-like spheroids” value with PFC-like spheroids [2] (Wt PFC-like spheroids, 90 min after treatment) is listed as “differences were observed in all groups except Rivastigmine”.
On to `CCCN(CCC)CCc1cccc2c1CC(=O)N2` [Ropinirole], for which, in the experiment with A53T VTA-like spheroids, the “effect on subpeak count” value is 3 and 10 μM, but not 1 μM, Ropinirole significantly reduced subpeak count; the “reversal of A53T-induced deficits” value is “significantly reduce peak count and increase peak width to the level that they were no longer significantly different from Wt DMSO-treated control spheroids; also recorded: restored deficits across all 3 peak measures”.
Consider `Cc1ccc(C(=O)c2cc(O)c(O)c([N+](=O)[O-])c2)cc1` [Tolcapone], for which, in the experiment on A53T VTA-like spheroids, the “reversal of A53T-induced deficits” value is listed as “only Ropinirole was found to reverse this 90-min after treatment”.
Take `OC(CCN1CCCCC1)(c1ccccc1)C1CCCCC1` (stereo not shown) [Trihexyphenidyl]: the “reversal of A53T-induced deficits” value in the experiment with A53T VTA-like spheroids is given as “only Ropinirole was found to reverse this 90-min after treatment”.

Source of the values: patent US20240141291A1, “FUNCTIONAL BRAIN REGION-SPECIFIC NEURAL SPHEROIDS AND METHODS OF USE” (THE UNITED STATES OF AMERICA, AS REPRESENTED BY THE …, priority 2021, published 2024).
